{"source": "paper PMC12062780", "about": "“Validation of ion mobility spectrometry ‐ mass spectrometry as a screening tool to identify type II kinase inhibitors of FGFR1 kinase” (Rapid Communications in Mass Spectrometry, 2021)", "key": {"FGFR1 [1]": {"target": "T1, FGFR1 (Homo sapiens, UniProt P11362, C488A/C584S)", "T1 construct": "made in house; host or cells: E. coli", "T1 sequence (P11362 with tags, fused parts or gaps C488A/C584S)": "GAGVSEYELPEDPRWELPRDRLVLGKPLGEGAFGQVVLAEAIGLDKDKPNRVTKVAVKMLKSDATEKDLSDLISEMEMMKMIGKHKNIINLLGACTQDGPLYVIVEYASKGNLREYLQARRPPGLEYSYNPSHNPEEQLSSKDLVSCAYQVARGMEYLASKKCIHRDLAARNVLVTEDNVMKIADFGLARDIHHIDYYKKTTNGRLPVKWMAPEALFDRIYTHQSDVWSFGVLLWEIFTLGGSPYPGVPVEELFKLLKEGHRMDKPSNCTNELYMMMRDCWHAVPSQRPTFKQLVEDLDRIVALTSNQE", "assay": "ESI-CIU-IMS-MS collision-induced unfolding of FGFR1 after incubation with inhibitor", "details": "for IMS-MS Drift Time of unfolded conformer / Intensity vs base peak (5.5 ms) of the unfolded conformer at ca 7.6 ms: 11+ FGFR1 ions", "experimental": "FGFR1 (2 μM) and inhibitors (8 μM) were incubated separately in ammonium acetate (100 mM) for 1 h at room temperature prior to analysis. A Synapt G2‐S travelling‐wave ion mobility spectrometry ‐ mass spectrometer equipped with a nano‐ESI source was used for all sample analyses (Waters Corp., Manchester, UK). Samples were analysed by nano‐ESI from in‐house fabricated gold–palladium‐coated borosilicate capillaries assembled using a P‐97 micropipette puller (Sutter Instrument Co., Novato, CA, USA) and a sputter coater (Polaron SC7620; Quorum Technologies Ltd, Kent, UK). The following instrument parameters were set: capillary voltage 1.8 kV, cone voltage 30 V, source temperature 100°C, backing pressure 9.3 mbar, travelling‐wave height 40 V, travelling‐wave speed 500 m/s, IMS He gas flow rate 150 mL/min, IMS N2 gas flow rate 50 mL/min. For the collision‐induced unfolding (CIU) experiments, the trap voltage was increased to 21 V or 24 V and the transfer voltage was maintained at 4 V. Data were processed by use of the MassLynx (version 4.1) and Driftscope software supplied with the mass spectrometer. The m/z scale was calibrated using a separate introduction of aqueous CsI at 1 mg/mL.\nTo see if type I and type II inhibitors affect the conformational profile of FGFR1, the protein was incubated with each inhibitor separately prior to nano‐ESI‐CIU‐IMS‐MS analysis. All charge‐state ions arising from the FGFR1–ligand complexes (selected individually by the initial quadrupole analyser) were subjected to CIU‐induced unfolding in the trap prior to IMS separation.\nDuring these analyses, the trap energy was increased and protein unfolding was monitored by examining the drift times of the protein ions during their transit through the IMS cell."}, "[2]": {"target": "T2, Human FGFR1 consisting of residues 457–765 with C488A and C584S mutations (Homo sapiens, UniProt P11362, C488A/C584S)", "T2 construct": "made in house; host or cells: E. coli", "T2 sequence (P11362 with tags, fused parts or gaps C488A/C584S)": "as above", "assay": "Isothermal titration calorimetry (ITC) of inhibitor binding to FGFR1", "details": "25°C, type I TKIs", "quoted_text": "ITC was carried out using a Microcal ITC200 instrument (GE Healthcare Biosciences, Amersham, UK). FGFR1 was dialysed against the experimental buffer (20 mM Tris/HCl, 100 mM NaCl and 5 mM DTT pH 7.8) prior to titration with inhibitor. Inhibitors were dissolved in DMSO, and experimental buffer DMSO concentration was matched. Titrations were performed at 25°C with 2 μL injections of inhibitor (200 μM) every 180 s into the cell containing FGFR1 (20 μM) with stirring at 1000 rpm. Results were analysed in Origin (OriginLab, Northampton, MA, USA) and fitted using a one‐site binding model."}, "FGFR1 [3]": {"system": "FGFR1", "parameters": "method as in PMID 22141913", "details": "cited from earlier work"}, "FGFR1 [4]": {"target": "T1, FGFR1", "assay": "Microscale thermophoresis (MST), label-free", "format": "binding", "details": "type I TKI; MST per b30 and Figure S5 (Figure 2 legend says ITC), 25°C", "experimental": "Thermophoresis was used to measure the binding interactions between FGFR1 and compounds. The MST measurements were performed using a Monolith NT.LabelFree instrument (NanoTemper Technologies GmbH, Munich, Germany). In this instrument, an infrared laser beam and light (fluorescence excitation and emission) was coupled with a dichroic mirror and focused on the sample. When the IR‐laser was on, it heated a small area of the sample and created a temperature gradient. The total fluorescence of the focused area was measured when the IR‐laser was off (Fcold) and on (Fhot). The capillaries were filled with the sample (less than 5 μL was required for each capillary). The following MST settings were used: LED power 70%, MST laser power 40%, fluorescence before (5 s), MST on (30 s), fluorescence after (3 s). […] After the capillary scan thermophoresis FGFR1 was measured for 30 s in the presence of the varied concentrations of compound. Fnorm = Fhot/Fcold was analysed and plotted by NT Analysis software (NanoTemper Technologies GmbH). Fraction bound = (Fnorm – Fnorm [unbound])/(Fnorm (bound) – Fnorm (unbound)) was calculated and the binding data were fitted to a Hill function (n = 1) using the instrument analysis software. To eliminate artifacts caused by labelling or modifying proteins, the fluorescence of tryptophan residues was used to monitor the local protein concentration. […]"}, "FGFR1 kinase domain": {"target": "T3, FGFR1 kinase domain (Homo sapiens, UniProt P11362, C488A/C584S)", "T3 construct": "Human FGFR1 consisting of residues 457–765 with C488A and C584S mutations; made in house; host or cells: E. coli", "T3 sequence (P11362 457-765 C488A/C584S)": "as the sequence (P11362 with tags, fused parts or gaps C488A/C584S) above, with G1L counted along it", "assay": "X-ray crystallography of FGFR1–ligand complexes (DFG loop status)", "format": "binding", "details": "co-crystal structure", "quoted_text": "Data were integrated and scaled using XDS[23] and SCALA[24] as implemented within the autoPROC software package.[25] Data reduction and structure solution by molecular replacement were carried out using programs from the CCP4 software suite.[26] […] The protein–inhibitor complex model was refined using Buster,[28] interspersed with rounds of manual model building in Coot.[29]"}, "FGFR1 [5]": {"system": "FGFR1", "details": "read-out: in vitro IC50 against FGFR1; cited from earlier work"}}, "data": [{"smiles": "CC(C)Oc1cc(Nc2ccnc(NCc3cc(C4CC4)no3)n2)n[nH]1", "note": "[Compound B]", "values": [{"measurement": "IMS-MS Drift Time of unfolded conformer", "setting": "FGFR1 [1]; 21 V Trap", "result": 7.5, "unit": "ms"}, {"measurement": "Intensity vs base peak (5.5 ms) of the unfolded conformer at ca 7.6 ms", "setting": "FGFR1 [1]; 21 V Trap", "result": 29.2, "unit": "%"}, {"measurement": "IMS-MS Drift Time of unfolded conformer", "setting": "FGFR1 [1]; 24 V Trap", "result": 7.7, "unit": "ms"}, {"measurement": "Intensity vs base peak (5.5 ms) of the unfolded conformer at ca 7.6 ms", "setting": "FGFR1 [1]; 24 V Trap", "result": 50.8, "unit": "%"}]}, {"smiles": "Cc1cc(Nc2nc(NCCc3cccnc3)ncc2Br)n[nH]1", "note": "[Compound C]", "values": [{"measurement": "IMS-MS Drift Time of unfolded conformer", "setting": "FGFR1 [1]; 21 V Trap", "result": 7.5, "unit": "ms"}, {"measurement": "Intensity vs base peak (5.5 ms) of the unfolded conformer at ca 7.6 ms", "setting": "FGFR1 [1]; 21 V Trap", "result": 25.0, "unit": "%"}, {"measurement": "IMS-MS Drift Time of unfolded conformer", "setting": "FGFR1 [1]; 24 V Trap", "result": 7.5, "unit": "ms"}, {"measurement": "Intensity vs base peak (5.5 ms) of the unfolded conformer at ca 7.6 ms", "setting": "FGFR1 [1]; 24 V Trap", "result": 40.7, "unit": "%"}]}, {"smiles": "CCCc1cc(Nc2nc(NCc3ccccn3)ncc2Br)n[nH]1", "note": "[Compound D]", "values": [{"measurement": "Kd for FGFR1", "setting": "[2]", "result": 0.036, "unit": "µM"}, {"measurement": "IMS-MS Drift Time of unfolded conformer", "setting": "FGFR1 [1]; 21 V Trap", "result": 7.5, "unit": "ms"}, {"measurement": "Intensity vs base peak (5.5 ms) of the unfolded conformer at ca 7.6 ms", "setting": "FGFR1 [1]; 21 V Trap", "result": 27.5, "unit": "%"}, {"measurement": "IMS-MS Drift Time of unfolded conformer", "setting": "FGFR1 [1]; 24 V Trap", "result": 7.7, "unit": "ms"}, {"measurement": "Intensity vs base peak (5.5 ms) of the unfolded conformer at ca 7.6 ms", "setting": "FGFR1 [1]; 24 V Trap", "result": 43.2, "unit": "%"}]}, {"smiles": "CNC(=O)c1ccccc1Nc1cc(Nc2cn(C)nc2C)ncc1C(F)(F)F", "note": "[Compound E]", "values": [{"measurement": "IMS-MS Drift Time of unfolded conformer", "setting": "FGFR1 [1]; 21 V Trap", "result": 7.5, "unit": "ms"}, {"measurement": "Intensity vs base peak (5.5 ms) of the unfolded conformer at ca 7.6 ms", "setting": "FGFR1 [1]; 21 V Trap", "result": 24.2, "unit": "%"}, {"measurement": "IMS-MS Drift Time of unfolded conformer", "setting": "FGFR1 [1]; 24 V Trap", "result": 7.5, "unit": "ms"}, {"measurement": "Intensity vs base peak (5.5 ms) of the unfolded conformer at ca 7.6 ms", "setting": "FGFR1 [1]; 24 V Trap", "result": 45.8, "unit": "%"}]}, {"smiles": "COc1ccc(C(=O)Nc2cc(-c3ccccc3)[nH]n2)cc1OC", "note": "[JK-P3]", "values": [{"measurement": "cellular activity against FGFR1", "setting": "FGFR1 [3]", "result": "cellular activity against FGFR1"}, {"measurement": "Kd", "setting": "FGFR1 [4]", "result": 25, "unit": "µM"}, {"measurement": "FGFR1 kinase conformation bound or induced (DFG motif orientation)", "setting": "FGFR1 kinase domain", "result": "DFG in"}, {"measurement": "IMS-MS Drift Time of unfolded conformer", "setting": "FGFR1 [1]; 21 V Trap", "result": 7.5, "unit": "ms"}, {"measurement": "Intensity vs base peak (5.5 ms) of the unfolded conformer at ca 7.6 ms", "setting": "FGFR1 [1]; 21 V Trap", "result": 30.8, "unit": "%"}, {"measurement": "IMS-MS Drift Time of unfolded conformer", "setting": "FGFR1 [1]; 24 V Trap", "result": 7.5, "unit": "ms"}, {"measurement": "Intensity vs base peak (5.5 ms) of the unfolded conformer at ca 7.6 ms", "setting": "FGFR1 [1]; 24 V Trap", "result": 45.8, "unit": "%"}]}, {"smiles": "CN1CCN(c2ccc(NC(=O)c3n[nH]c4ccccc34)cc2)CC1", "note": "[JK-P5]", "values": [{"measurement": "cellular activity against FGFR1", "setting": "FGFR1 [3]", "result": "cellular activity against FGFR1"}, {"measurement": "Kd", "setting": "FGFR1 [4]", "result": 0.145, "unit": "µM"}, {"measurement": "FGFR1 kinase conformation bound or induced (DFG motif orientation)", "setting": "FGFR1 kinase domain", "result": "DFG in"}, {"measurement": "IMS-MS Drift Time of unfolded conformer", "setting": "FGFR1 [1]; 21 V Trap", "result": 7.5, "unit": "ms"}, {"measurement": "Intensity vs base peak (5.5 ms) of the unfolded conformer at ca 7.6 ms", "setting": "FGFR1 [1]; 21 V Trap", "result": 22.1, "unit": "%"}, {"measurement": "IMS-MS Drift Time of unfolded conformer", "setting": "FGFR1 [1]; 24 V Trap", "result": 7.5, "unit": "ms"}, {"measurement": "Intensity vs base peak (5.5 ms) of the unfolded conformer at ca 7.6 ms", "setting": "FGFR1 [1]; 24 V Trap", "result": 32.2, "unit": "%"}]}, {"smiles": "Cc1ccc(F)c(NC(=O)Nc2ccc(-c3cccc4[nH]nc(N)c34)cc2)c1", "note": "[Linifanib]", "values": [{"measurement": "FGFR1 kinase conformation bound or induced (DFG motif orientation)", "setting": "FGFR1 kinase domain", "result": "DFG out"}, {"measurement": "IMS-MS Drift Time of unfolded conformer", "setting": "FGFR1 [1]; 21 V Trap", "result": 7.5, "unit": "ms"}, {"measurement": "Intensity vs base peak (5.5 ms) of the unfolded conformer at ca 7.6 ms", "setting": "FGFR1 [1]; 21 V Trap", "result": 55.0, "unit": "%"}, {"measurement": "IMS-MS Drift Time of unfolded conformer", "setting": "FGFR1 [1]; 24 V Trap", "result": 7.7, "unit": "ms"}, {"measurement": "Intensity vs base peak (5.5 ms) of the unfolded conformer at ca 7.6 ms", "setting": "FGFR1 [1]; 24 V Trap", "result": 92.8, "unit": "%"}]}, {"smiles": "Cc1ccc(C(=O)Nc2ccc(CN3CCN(C)CC3)c(C(F)(F)F)c2)cc1C#Cc1cnc2cccnn12", "note": "[Ponatinib]", "values": [{"measurement": "IMS-MS Drift Time of unfolded conformer", "setting": "FGFR1 [1]; 21 V Trap", "result": 7.9, "unit": "ms"}, {"measurement": "Intensity vs base peak (5.5 ms) of the unfolded conformer at ca 7.6 ms", "setting": "FGFR1 [1]; 21 V Trap", "result": 46.7, "unit": "%"}, {"measurement": "IMS-MS Drift Time of unfolded conformer", "setting": "FGFR1 [1]; 24 V Trap", "result": 7.7, "unit": "ms"}, {"measurement": "Intensity vs base peak (5.5 ms) of the unfolded conformer at ca 7.6 ms", "setting": "FGFR1 [1]; 24 V Trap", "result": 71.2, "unit": "%"}]}, {"smiles": "CNC(=O)c1cc(Oc2ccc(NC(=O)Nc3ccc(Cl)c(C(F)(F)F)c3)cc2)ccn1", "note": "[Sorafenib]", "values": [{"measurement": "IMS-MS Drift Time of unfolded conformer", "setting": "FGFR1 [1]; 21 V Trap", "result": 7.5, "unit": "ms"}, {"measurement": "IMS-MS Drift Time of unfolded conformer", "setting": "FGFR1 [1]; 24 V Trap", "result": 7.5, "unit": "ms"}, {"measurement": "Intensity vs base peak (5.5 ms) of the unfolded conformer at ca 7.6 ms", "setting": "FGFR1 [1]; 24 V Trap", "result": 66.1, "unit": "%"}, {"measurement": "Inhibitor class assigned from CIU profile", "setting": "FGFR1 [1]; ESI-IMS-MS CIU profile", "result": "type II"}, {"measurement": "IC50", "setting": "FGFR1 [5]", "result": 0.58, "unit": "µM"}]}]}
